Assay results reported in the NIST ThermoML archive (doi:10.1021/acs.jced.6b00181).
± gives the expanded uncertainty stated by the source.

Assay: xn = mol fraction of the nth substance listed
Conditions: Liquid, Other PVT measurement

C=CC [propene] + CCCCCC
Conditions | mass density [kg/m3]
325.5 K, 6800 kPa, x1 = 0.8985 | 488.5 ± 4
325.5 K, 10700 kPa, x1 = 0.8985 | 500.7 ± 4.1
325.5 K, 13800 kPa, x1 = 0.8985 | 508.3 ± 4.1
325.5 K, 16100 kPa, x1 = 0.8985 | 513.5 ± 4.2
325.5 K, 20900 kPa, x1 = 0.8985 | 523.6 ± 4.2
325.5 K, 27600 kPa, x1 = 0.8985 | 535.1 ± 4.3
325.5 K, 34300 kPa, x1 = 0.8985 | 544.8 ± 4.4
325.5 K, 41300 kPa, x1 = 0.8985 | 554.1 ± 4.5
325.5 K, 48200 kPa, x1 = 0.8985 | 561.7 ± 4.5
325.5 K, 51600 kPa, x1 = 0.8985 | 566.7 ± 4.6
325.5 K, 55000 kPa, x1 = 0.8985 | 569.5 ± 4.6
325.5 K, 58400 kPa, x1 = 0.8985 | 574.2 ± 4.6
325.5 K, 61800 kPa, x1 = 0.8985 | 576.8 ± 4.6
325.5 K, 64200 kPa, x1 = 0.8985 | 580.1 ± 4.7
325.5 K, 67100 kPa, x1 = 0.8985 | 582.4 ± 4.7
370.2 K, 5200 kPa, x1 = 0.9003 | 385.2 ± 3.6
370.2 K, 5900 kPa, x1 = 0.9003 | 392.1 ± 3.6
370.2 K, 7300 kPa, x1 = 0.9003 | 406 ± 3.6
370.2 K, 10700 kPa, x1 = 0.9003 | 429.7 ± 3.7
370.2 K, 14200 kPa, x1 = 0.9003 | 447.3 ± 3.7
370.2 K, 17300 kPa, x1 = 0.9003 | 459.2 ± 3.8
370.2 K, 20800 kPa, x1 = 0.9003 | 469.1 ± 3.8
370.2 K, 24100 kPa, x1 = 0.9003 | 478.3 ± 3.9
370.2 K, 31300 kPa, x1 = 0.9003 | 495.2 ± 4
370.2 K, 38000 kPa, x1 = 0.9003 | 508.5 ± 4.1
370.2 K, 44600 kPa, x1 = 0.9003 | 519.7 ± 4.2
370.2 K, 46900 kPa, x1 = 0.9003 | 523.6 ± 4.2
370.2 K, 48000 kPa, x1 = 0.9003 | 523.6 ± 4.2
370.2 K, 50600 kPa, x1 = 0.9003 | 529.1 ± 4.3
370.2 K, 51400 kPa, x1 = 0.9003 | 529.1 ± 4.3
370.2 K, 57800 kPa, x1 = 0.9003 | 538.5 ± 4.3
370.2 K, 61800 kPa, x1 = 0.9003 | 544.3 ± 4.4
370.2 K, 67100 kPa, x1 = 0.9003 | 550.3 ± 4.4
374.1 K, 2800 kPa, x1 = 0.606 | 465.7 ± 3.9
374.1 K, 2900 kPa, x1 = 0.606 | 467 ± 3.9
374.1 K, 3800 kPa, x1 = 0.606 | 471.2 ± 3.9
374.1 K, 5500 kPa, x1 = 0.606 | 479 ± 4
374.1 K, 7300 kPa, x1 = 0.606 | 486.2 ± 4.1
374.1 K, 10600 kPa, x1 = 0.606 | 497.9 ± 4.1
374.1 K, 17400 kPa, x1 = 0.606 | 515.3 ± 4.2
374.1 K, 24000 kPa, x1 = 0.606 | 528.5 ± 4.3
374.1 K, 31000 kPa, x1 = 0.606 | 540.7 ± 4.4
374.1 K, 37900 kPa, x1 = 0.606 | 551.3 ± 4.4
374.1 K, 38000 kPa, x1 = 0.606 | 551.7 ± 4.5
374.1 K, 44700 kPa, x1 = 0.606 | 560.9 ± 4.5
374.1 K, 51300 kPa, x1 = 0.606 | 569.2 ± 4.6
374.1 K, 58100 kPa, x1 = 0.606 | 577.4 ± 4.6
374.1 K, 63300 kPa, x1 = 0.606 | 583.4 ± 4.7
374.1 K, 66900 kPa, x1 = 0.606 | 587.4 ± 4.7
423.6 K, 16600 kPa, x1 = 0.9003 | 385.2 ± 3.3
423.6 K, 17400 kPa, x1 = 0.9003 | 389.1 ± 3.3
423.6 K, 20800 kPa, x1 = 0.9003 | 408.2 ± 3.4
423.6 K, 24300 kPa, x1 = 0.9003 | 424 ± 3.5
423.6 K, 31200 kPa, x1 = 0.9003 | 449.1 ± 3.7
423.6 K, 37900 kPa, x1 = 0.9003 | 462.3 ± 3.8
423.6 K, 44800 kPa, x1 = 0.9003 | 479.8 ± 3.9
423.6 K, 51600 kPa, x1 = 0.9003 | 493 ± 4
423.6 K, 58300 kPa, x1 = 0.9003 | 504.1 ± 4.1
423.6 K, 59400 kPa, x1 = 0.9003 | 504.8 ± 4.1
423.6 K, 63700 kPa, x1 = 0.9003 | 512.3 ± 4.1
423.6 K, 67100 kPa, x1 = 0.9003 | 516.8 ± 4.2
424 K, 10100 kPa, x1 = 0.606 | 427.5 ± 3.7
424 K, 17500 kPa, x1 = 0.606 | 462.7 ± 3.8
424 K, 24300 kPa, x1 = 0.606 | 484.2 ± 4
424 K, 30800 kPa, x1 = 0.606 | 500.6 ± 4.1
424 K, 37900 kPa, x1 = 0.606 | 514.3 ± 4.2
424 K, 44700 kPa, x1 = 0.606 | 523.9 ± 4.2
424 K, 51400 kPa, x1 = 0.606 | 534.9 ± 4.3
424 K, 58300 kPa, x1 = 0.606 | 546 ± 4.4
424 K, 63000 kPa, x1 = 0.606 | 551 ± 4.4
424 K, 66900 kPa, x1 = 0.606 | 556 ± 4.5
424.7 K, 4800 kPa, x1 = 0.4466 | 433.6 ± 3.8
424.7 K, 7200 kPa, x1 = 0.4466 | 448.4 ± 3.9
424.7 K, 10700 kPa, x1 = 0.4466 | 467.6 ± 3.9
424.7 K, 17400 kPa, x1 = 0.4466 | 492.5 ± 4
424.7 K, 21000 kPa, x1 = 0.4466 | 502.4 ± 4.1
424.7 K, 24300 kPa, x1 = 0.4466 | 511.5 ± 4.2
424.7 K, 31000 kPa, x1 = 0.4466 | 525 ± 4.3
424.7 K, 37800 kPa, x1 = 0.4466 | 537.6 ± 4.3
424.7 K, 44700 kPa, x1 = 0.4466 | 548.4 ± 4.4
424.7 K, 51500 kPa, x1 = 0.4466 | 558.4 ± 4.5
424.7 K, 58300 kPa, x1 = 0.4466 | 567.4 ± 4.6
424.7 K, 63900 kPa, x1 = 0.4466 | 573.9 ± 4.6
424.7 K, 67500 kPa, x1 = 0.4466 | 578.1 ± 4.7
